Earlier results on 1 compound are cited in patent US6777448B2, “Veterinary compositions for the treatment of parasitic diseases” (New Pharma Research Sweden AB, priority 2000, dated 2004).

The conditions of data set [1]: delivered via injection as such.
For data set [2] the following is noted: bloodstream of animals.
The conditions of data set [3]: given orally.

Where two headings read alike, the source gives them in different places.

As to `O=C(Nc1ccc(Oc2ccc(Cl)cc2)c(Cl)c1)c1cc(I)cc(I)c1O` [rafoxanide, 3′-chloro-4′-(4-chlorophenoxy)-3,5-di-iodosalicylanilide], the irritation on injection result in data set [1] is given as “irritating”. In data set [2], the “binding to protein in the blood” value was “bind strongly to protein in the blood” and the “persistence in the bloodstream” value is on record as “persist in the bloodstream of animals”. The absorption in data set [3] (non-gastric species) is recorded as 10%. For the same compound, the absorption result in data set [3] (ruminants) is “up to 50%”. Moreover, the solubility (in a 1% surface-active agent composition) was 0.14%. Besides, where the note is “water at 25° C.”, the solubility in water result is given as “approximately 0.005 % weight/volume”.
